The test system of one assay is RS411 cells (B-ALL). Kind of assay: Cell surface BCMA by FACS. Format: cell-based, human. How it is done:
(§1) Cells were seeded at 1×10^4 cells/well in a total volume of 250 μl into a 96-well plate. The cells were cultured in RPMI supplemented with 10% FCS.
(§2) The tested compounds (Compound 1 and Compound 22) were added to the cell cultures at concentrations of: 0, 10, 1, 0.5, 0.1, 0.01, 0.001 μM ([…], 10 nM, 100 nM, 500 nM, 1000 nM, and 10000 nM). Following 24 hours of incubation at 37° C., the cells were collected and stained with anti-BCMA antibody and immediately analyzed by FACS.
(§3) […] cell lines, comprising 9 subtypes of lymphomas (see Table 1), were seeded at 1×10^5 cells/well in a total volume of 250 μl into a 96-well plate. The cells were cultured in RPMI medium supplemented with 10% FCS. Compound (22) was added to the cell cultures at a concentration of 10 μM, 1 μM, 100 nM, 10 nM, 1 nM, 100 pM, 10 pM, 1 pM, and 100 fM, and cell lines (8 from Hadassah Medical Center, 31 from Eurofins) were incubated at 37° C. for 24 hours with Compound (22). Following incubation, the cells were collected and BCMA levels were evaluated on the cell surface for cell-bound BCMA. Cells were stained with an anti-BCMA antibody (PE anti-human 19F2 BCMA, Biolegend), and cell surface BCMA levels were determined by FACS analysis (Mean Fluorescence Intensity. Soluble BCMA levels were analyzed by ELISA (Human BCMA/TNFRSF17 DuoSet kit: R&D Systems).
(In flow cytometry, cells or beads pass a laser one at a time.)

The test system of a further assay is 018Z cells (B-ALL). Put plainly: Cell surface BCMA by FACS. In kind it is cell-based, human. The protocol:
as §1, §2, §3

The next assay relates to SUDHL-6 cells (DLBCL). Put plainly: Cell surface BCMA by FACS. In kind it is cell-based, human. The protocol: as §1, §2, §3
In a further assay the test system is REH cells (B-ALL). Put plainly: Cell surface BCMA by FACS. In kind it is cell-based, human. The protocol: as §1, §2, §3
Another assay deals with Toledo cells (DLBCL). Kind of assay: Cell surface BCMA by FACS. In kind it is cell-based, human. How it is done: as §1, §2, §3
Assay [1] relates to NU-DUL-1 cells (B-cell Lymphoma). Put plainly: Soluble (shed) BCMA by ELISA. Format: cell-based, human. The protocol: as §3
In general terms: ELISA stands for enzyme-linked immunosorbent assay.

Assay [2] deals with L-248 cells (Hodgkin's Lymphoma). Kind of assay: Soluble (shed) BCMA by ELISA. Format: cell-based, human. The protocol:
as §3

In assay [3] the test system is Daudi cells (Burkitt's Lymphoma). Kind of assay: Soluble (shed) BCMA by ELISA. In kind it is cell-based, human. The protocol:
as §3

In assay [4] the test system is MC-116 cells (B-cell Lymphoma). Kind of assay: Soluble (shed) BCMA by ELISA. Format: cell-based, human. The protocol:
as §3

Assay [5] deals with GA-10 cells (Burkitt's Lymphoma). Put plainly: Soluble (shed) BCMA by ELISA. In kind it is cell-based, human. The protocol: as §3
Assay [6] deals with RPMI-6666 cells (Hodgkin's Lymphoma). Put plainly: Soluble (shed) BCMA by ELISA. Format: cell-based, human. How it is done:
as §3

In the next assay the test system is HT cells (DLBCL). Put plainly: Soluble (shed) BCMA by ELISA. In kind it is cell-based, human. The protocol:
as §3

In assay [7] the test system is CA46 cells (Burkitt's Lymphoma). Put plainly: Soluble (shed) BCMA by ELISA. Format: cell-based, human. The protocol: as §3
The next assay has as its system Multiple Myeloma. Put plainly: Anti-tumor activity of CAR-BCMA T cells and Compound (1) in patients. Format: in vivo, human. To be noted: CAR-BCMA T cells with a composition comprising Compound (1). How it is done:
All patients receive 3 doses of 300 mg/m^2 cyclophosphamide and 3 doses of 30 mg/m^2 fludarabine. Chemotherapy is administered because recipient leukocyte depletion enhances the activity of adoptively transferred T cells. Both chemotherapy agents are administered daily on days −5, −4, and −3 before CAR-BCMA T-cell infusion on day 0. CAR-BCMA T cells are administered to each patient with a composition comprising Compound (1). The dose escalation plan calls for an initial dose of 0.3×10^6 CAR^+ T cells/kg with threefold increases to each subsequent dose level.
Myeloma staging is conducted according to the International Uniform Response Criteria for Multiple Myeloma. Toxicity is graded by the Common Terminology Criteria for Adverse Events version 4.02. Two weeks, 1 month, 2 months, 3 months, and 6 months after CAR-BCMA infusion, MM is assessed with standard staging tests.
Autologous peripheral blood mononuclear cells (PBMCs) are cultured with an anti-CD3 monoclonal antibody to induce T-cell proliferation. The cells are transduced with the γ-retroviral vector that encodes that CAR, and 9 days after the initiation of cultures, CAR-BCMA T cells are infused.
CAR-BCMA T cells are detected by flow cytometry after staining with a phycoerythrin-labeled BCMA constant-fragment reagent (PE-BCMA-Fc). CAR-BCMA T cells are also detected by performing quantitative PCR (qPCR). […]

Where [8] appears, read: Homo sapiens, read-out: Shed BCMA (pg/ml) EC50.

The structures appear in SMILES notation.

As to `Cc1cccc2c1NC(=O)[C@@H](NC(=O)[C@H](CCC(F)(F)F)[C@H](CCC(F)(F)F)C(N)=O)N=C2c1cccc(F)c1` [Compound (22), (2R,3S)—N-((3S)-5-(3-fluorophenyl)-9-methyl-2-oxo-2,3-dihydro-1H-1,4-benzodiazepin-3-yl)-2,3-bis(3,3,3-trifluoropropyl)succinamide], the “mBCMA (MFI) Fold Increase” value in the assay with RS411 cells (B-ALL) was 0.9 fold; in the assay on 018Z cells (B-ALL) it was 0.9 fold; in the assay on SUDHL-6 cells (DLBCL) it was 2.6 fold; in the assay on REH cells (B-ALL) it was 0.9 fold; in the assay on Toledo cells (DLBCL) it was 3.2 fold. Besides, the “BCMA (Mean Fluorescence Intensity) 1 nM Compound (22)” value in the assay on RS411 cells (B-ALL) (1 nM, 24 h) was determined as 2273; in the assay with 018Z cells (B-ALL) (1 nM, 24 h), 4121; in the assay with SUDHL-6 cells (DLBCL) (1 nM, 24 h) it was 22915; in the assay with REH cells (B-ALL) (1 nM, 24 h), 5559; in the assay with Toledo cells (DLBCL) (1 nM, 24 h), 7541. The “BCMA (Mean Fluorescence Intensity) 100 nM Compound (22)” value is reported as 2518 in the assay with RS411 cells (B-ALL) (100 nM, 24 h); 4500 in the assay with 018Z cells (B-ALL) (100 nM, 24 h); 24812 in the assay on SUDHL-6 cells (DLBCL) (100 nM, 24 h); 6463 with REH cells (B-ALL) (100 nM, 24 h); 9580 with Toledo cells (DLBCL) (100 nM, 24 h). Moreover, the “Shed BCMA (pg/ml) % Reduction” value in assay [1] is 91%; in assay [2], “BLQ”; in assay [3] it was 100%; in [4] (MC-116) it was 76%; in [5] it was 83%; in assay [6], 92%. Moreover, the “Shed BCMA (pg/ml) % Reduction” value in the assay on HT cells (DLBCL) is 98%; in [7] (CA46), 90%. Further, the EC50 in [1] (setting [8]) was 1 nM; in [2] (setting [8]), greater than 10000 nM; in [3] (setting [8]), 0.5 nM; in assay [4] (Homo sapiens, MC116, MC-116, read-out: Shed BCMA (pg/ml) EC50), 6.5 nM; in [5] (setting [8]) it was 7.4 nM; in assay [6] (setting [8]), 9.1 nM. Further, the EC50 with HT cells (DLBCL) (setting [8]) turned out to be 1 nM; in assay [7] (Homo sapiens, CA46, read-out: Shed BCMA (pg/ml) EC50) it was 7.4 nM. Moreover, the “soluble BCMA 1 nM Compound (22)” value in [3] (1 nM, 24 h) was 162.6; in [4] (MC116, 1 nM, 24 h) it was 1810.6; in assay [5] (1 nM, 24 h) it was greater than 2000; in the assay with HT cells (DLBCL) (1 nM, 24 h) it was 389.4; in assay [7] (CA-46, 1 nM, 24 h) it was 1775.4. In addition, the “soluble BCMA 10 nM Compound (22)” value worked out at 36.8 in [3] (10 nM, 24 h); 414.8 in [4] (MC116, 10 nM, 24 h); 800.8 in [5] (10 nM, 24 h); 99.4 in the assay on HT cells (DLBCL) (10 nM, 24 h); 330 in assay [7] (CA-46, 10 nM, 24 h). For the same compound, the “soluble BCMA” value in assay [3] (FIG. 7B) is on record as “decreased soluble BCMA”. The “soluble BCMA 100 nM Compound (22)” value in assay [4] (MC116, 100 nM, 24 h) is given as 303.7; in assay [5] (100 nM, 24 h), 398.1; in the assay with HT cells (DLBCL) (100 nM, 24 h), 38; in assay [7] (CA-46, 100 nM, 24 h), 173.2.

With `CN1C(=O)[C@@H](NC(=O)[C@H](CCC(F)(F)F)[C@H](CCC(F)(F)F)C(N)=O)N=C(c2ccccc2)c2ccccc21` [Compound 1, (2R,3S)—N-((3S)-1-methyl-2-oxo-5-phenyl-2,3-dihydro-1H-1,4-benzodiazepin-3-yl)-2,3-bis(3,3,3-trifluoropropyl)succinamide], in the assay on Multiple Myeloma, the anti-tumor response entry is “improved anti-tumor response compared to either BCMA targeted CAR-T or Compound (1) treatment alone”.

(Values after patent US20200085839A1, “COMBINATION OF IMMUNOTHERAPEUTICS AND BISFLUOROALKYL-1,4-BENZODIAZEPINONE COMPOUNDS FOR TREATING LYMPHOMAS” (Ayala Pharmaceuticals Inc., priority 2018, published 2020).)
